# According to paper PMC5218480 (PLoS ONE, 2017):
# Test system: MV-4-11 cells
# Experiment: Gene expression microarray analysis (Affymetrix PrimeView) and GSEA
# Format: cell-based, human
# Set-up: RFU PODN (11730768_x_at) / Fold change /veh PODN (11730768_x_at) / RFU LINC00158 (11744669_a_at) / Fold change /veh LINC00158 (11744669_a_at) / RFU DUSP10 (11751237_a_at) / Fold change /veh DUSP10 (11751237_a_at) / RFU ID3 (11757404_x_at) / Fold change /veh ID3 (11757404_x_at) / RFU PLEKHG5 (11737974_s_at) / Fold change /veh PLEKHG5 (11737974_s_at) / RFU LRRC4B (11730491_at) / Fold change /veh LRRC4B (11730491_at) / RFU GIMAP4 (11747438_a_at) / Fold change /veh GIMAP4 (11747438_a_at) / RFU KRT8 (11758183_x_at) / Fold change /veh KRT8 (11758183_x_at) / RFU CNN1 (11734310_a_at) / Fold change /veh CNN1 (11734310_a_at) / RFU VPS37D (11726825_at) / Fold change /veh VPS37D (11726825_at) / RFU C10orf10 (11716522_x_at) / Fold change /veh C10orf10 (11716522_x_at) / RFU KIR2DL2 /// KIR2DL4 /// KIR2DL5A /// KIR2DL5B /// KIR2DS1 /// KIR2DS2 /// KIR2DS3 /// KIR2DS4 /// KIR3DL3 /// KIR3DL3 /// KIR3DS1 (11738374_at) / Fold change /veh KIR2DL2 /// KIR2DL4 /// KIR2DL5A /// KIR2DL5B /// KIR2DS1 /// KIR2DS2 /// KIR2DS3 /// KIR2DS4 /// KIR3DL3 /// KIR3DL3 /// KIR3DS1 (11738374_at) / RFU C1QL1 (11718748_at) / Fold change /veh C1QL1 (11718748_at) / RFU TMPRSS4 (11747572_a_at) / Fold change /veh TMPRSS4 (11747572_a_at) / RFU HAMP (11756126_x_at) / Fold change /veh HAMP (11756126_x_at) / RFU RNFT2 (11725882_a_at) / Fold change /veh RNFT2 (11725882_a_at) / RFU NR4A2 (11747474_a_at) / Fold change /veh NR4A2 (11747474_a_at) / RFU ABCC12 (11746883_a_at) / Fold change /veh ABCC12 (11746883_a_at) / RFU TMEM136 (11760407_x_at) / Fold change /veh TMEM136 (11760407_x_at) / RFU CLDN22 /// WWC2 (11732394_at) / Fold change /veh CLDN22 /// WWC2 (11732394_at) / RFU HLA-DPB1 (11760878_x_at) / Fold change /veh HLA-DPB1 (11760878_x_at) / RFU SPINT1 (11716480_a_at) / Fold change /veh SPINT1 (11716480_a_at) / RFU GAP43 (11754022_s_at) / Fold change /veh GAP43 (11754022_s_at) / RFU A4GNT (11735810_at) / Fold change /veh A4GNT (11735810_at) / RFU PRB3 (11715151_x_at) / Fold change /veh PRB3 (11715151_x_at) / RFU TUBB4B (11761932_at) / Fold change /veh TUBB4B (11761932_at) / RFU CAPN14 (11732068_a_at) / Fold change /veh CAPN14 (11732068_a_at) / RFU TMCC2 (11721928_a_at) / Fold change /veh TMCC2 (11721928_a_at) / RFU IRGQ (11745062_a_at) / Fold change /veh IRGQ (11745062_a_at) / RFU FAM174B (11720279_a_at) / Fold change /veh FAM174B (11720279_a_at) / RFU TMPRSS4 (11748680_a_at) / Fold change /veh TMPRSS4 (11748680_a_at) / RFU FAM212B (11763350_a_at) / Fold change /veh FAM212B (11763350_a_at) / RFU PLEKHG5 (11743358_a_at) / Fold change /veh PLEKHG5 (11743358_a_at) / RFU ZSCAN30 (11745921_a_at) / Fold change /veh ZSCAN30 (11745921_a_at) / RFU CMKLR1 (11741424_a_at) / Fold change /veh CMKLR1 (11741424_a_at) / RFU LOC101060620 /// MAPK8IP1 (11723275_at) / Fold change /veh LOC101060620 /// MAPK8IP1 (11723275_at) / RFU SPTSSB (11747773_x_at) / Fold change /veh SPTSSB (11747773_x_at) / RFU PRSS12 (11739890_at) / Fold change /veh PRSS12 (11739890_at) / RFU BIN1 (11741810_x_at) / Fold change /veh BIN1 (11741810_x_at) / RFU WNT11 (11732464_a_at) / Fold change /veh WNT11 (11732464_a_at) / RFU C10orf10 (11716521_a_at) / Fold change /veh C10orf10 (11716521_a_at) / RFU C5orf56 (11738089_at) / Fold change /veh C5orf56 (11738089_at) / RFU CYB561 (11721691_x_at) / Fold change /veh CYB561 (11721691_x_at) / RFU ANKRD19P (11752326_a_at) / Fold change /veh ANKRD19P (11752326_a_at) / RFU OR2T12 /// OR2T33 /// OR2T8 (11738714_s_at) / Fold change /veh OR2T12 /// OR2T33 /// OR2T8 (11738714_s_at) / RFU VCAN (11748164_a_at) / Fold change /veh VCAN (11748164_a_at) / RFU JSRP1 (11732532_at) / Fold change /veh JSRP1 (11732532_at) / RFU KRTAP10-11 (11738290_x_at) / Fold change /veh KRTAP10-11 (11738290_x_at) / RFU MYO3A (11730013_a_at) / Fold change /veh MYO3A (11730013_a_at) / RFU EBF3 (11725865_a_at) / Fold change /veh EBF3 (11725865_a_at) / RFU CAMK2N1 (11719241_x_at) / Fold change /veh CAMK2N1 (11719241_x_at) / RFU C5orf56 (11738088_a_at) / Fold change /veh C5orf56 (11738088_a_at) / RFU OLFML3 (11715873_a_at) / Fold change /veh OLFML3 (11715873_a_at) / RFU LOC100653217 /// NTM (11731650_a_at) / Fold change /veh LOC100653217 /// NTM (11731650_a_at) / RFU MAPK11 (11762145_a_at) / Fold change /veh MAPK11 (11762145_a_at) / RFU FIZ1 (11724087_x_at) / Fold change /veh FIZ1 (11724087_x_at) / RFU OASL (11726364_x_at) / Fold change /veh OASL (11726364_x_at) / RFU SOX15 (11748057_x_at) / Fold change /veh SOX15 (11748057_x_at) / RFU CD79A (11719716_a_at) / Fold change /veh CD79A (11719716_a_at) / RFU HIST1H1D (11736915_at) / Fold change /veh HIST1H1D (11736915_at) / RFU CASKIN2 (11723855_a_at) / Fold change /veh CASKIN2 (11723855_a_at) / RFU LOC730098 (11760151_x_at) / Fold change /veh LOC730098 (11760151_x_at) / RFU OR4N2 (11742367_at) / Fold change /veh OR4N2 (11742367_at) / RFU PRRT2 (11749266_a_at) / Fold change /veh PRRT2 (11749266_a_at) / RFU SNX32 (11753110_a_at) / Fold change /veh SNX32 (11753110_a_at) / RFU CDHR5 (11726645_a_at) / Fold change /veh CDHR5 (11726645_a_at) / RFU RCAN1 (11760418_a_at) / Fold change /veh RCAN1 (11760418_a_at) / RFU FAM167A (11723789_a_at) / Fold change /veh FAM167A (11723789_a_at) / RFU FAM26E (11764081_at) / Fold change /veh FAM26E (11764081_at) / RFU ISYNA1 (11749810_s_at) / Fold change /veh ISYNA1 (11749810_s_at) / RFU ACY1 (11761880_at) / Fold change /veh ACY1 (11761880_at) / RFU 11764098_at / Fold change /veh 11764098_at / RFU SAMD14 (11745864_x_at) / Fold change /veh SAMD14 (11745864_x_at) / RFU NPB (11741838_a_at) / Fold change /veh NPB (11741838_a_at) / RFU TMPRSS6 (11731388_a_at) / Fold change /veh TMPRSS6 (11731388_a_at) / RFU KRTAP10-2 (11738614_at) / Fold change /veh KRTAP10-2 (11738614_at) / RFU ARHGAP8 /// PRR5-ARHGAP8 (11727945_x_at) / Fold change /veh ARHGAP8 /// PRR5-ARHGAP8 (11727945_x_at) / RFU KRTAP5-7 /// NADSYN1 (11734609_at) / Fold change /veh KRTAP5-7 /// NADSYN1 (11734609_at) / RFU RASL12 (11751679_a_at) / Fold change /veh RASL12 (11751679_a_at) / RFU CDKN2B (11736163_a_at) / Fold change /veh CDKN2B (11736163_a_at) / RFU PRF1 (11729649_at) / Fold change /veh PRF1 (11729649_at) / RFU, ZNF638 /// ZNF638-IT1 / Fold change vs veh, ZNF638 /// ZNF638-IT1 / RFU, PANK3 / Fold change vs veh, PANK3 / RFU, SH3YL1 / Fold change vs veh, SH3YL1 / RFU, ZEB2 / Fold change vs veh, ZEB2 / RFU, NRIP1 / Fold change vs veh, NRIP1 / RFU, PTTG1IP / Fold change vs veh, PTTG1IP / RFU, CAPN2 / Fold change vs veh, CAPN2 / RFU, MED14 / Fold change vs veh, MED14 / RFU, SNORA58 / Fold change vs veh, SNORA58 / RFU, C1orf63 / Fold change vs veh, C1orf63 / RFU, LRRFIP1 / Fold change vs veh, LRRFIP1 / RFU, NDUFAF7 / Fold change vs veh, NDUFAF7 / RFU, SLC12A2 / Fold change vs veh, SLC12A2 / RFU, IBTK / Fold change vs veh, IBTK / RFU, ESF1 / Fold change vs veh, ESF1 / Fold change vs veh, TMEM50B / RFU, TAOK1 / Fold change vs veh, TAOK1 / RFU, ACBD3 / Fold change vs veh, ACBD3 / RFU, TMA16 / Fold change vs veh, TMA16 / RFU, RWDD3 / Fold change vs veh, RWDD3 / RFU, BCAT1 / Fold change vs veh, BCAT1 / RFU, EDEM3 / Fold change vs veh, EDEM3 / RFU, TMEM33 / Fold change vs veh, TMEM33 / RFU, WDR75 / Fold change vs veh, WDR75 / RFU, AHCTF1 / Fold change vs veh, AHCTF1 / RFU, TFRC / Fold change vs veh, TFRC / RFU, ZDHHC17 / Fold change vs veh, ZDHHC17 / RFU, NOM1 / Fold change vs veh, NOM1 / RFU, ARL8B / Fold change vs veh, ARL8B / RFU, ZBTB11 / Fold change vs veh, ZBTB11 / RFU, TAMM41 / Fold change vs veh, TAMM41 / RFU, KIAA1704 /// LOC100996395 / Fold change vs veh, KIAA1704 /// LOC100996395 / RFU, ING1 / Fold change vs veh, ING1 / RFU, TRMT61B / Fold change vs veh, TRMT61B / RFU, FUBP3 / Fold change vs veh, FUBP3 / RFU, TP53 / Fold change vs veh, TP53 / RFU, TNKS2 / Fold change vs veh, TNKS2 / RFU, ZFP14 / Fold change vs veh, ZFP14 / RFU, ACTR2 / Fold change vs veh, ACTR2 / RFU, PPP3R1 / Fold change vs veh, PPP3R1 / RFU, PIK3R1 / Fold change vs veh, PIK3R1 / RFU, HNRNPA1 / Fold change vs veh, HNRNPA1 / RFU, RNF170 / Fold change vs veh, RNF170 / RFU, ZNF28 / Fold change vs veh, ZNF28 / RFU, RNGTT / Fold change vs veh, RNGTT / RFU, OGT / Fold change vs veh, OGT / RFU, BRD1 / Fold change vs veh, BRD1 / RFU, MARS / Fold change vs veh, MARS / RFU, ZNF655 / Fold change vs veh, ZNF655 / RFU, FAHD1 / Fold change vs veh, FAHD1 / RFU, BDP1 / Fold change vs veh, BDP1 / RFU, LRRCC1 / Fold change vs veh, LRRCC1 / RFU, ARID1A / Fold change vs veh, ARID1A / RFU, ZNF146 / Fold change vs veh, ZNF146 / RFU, ZNF330 / Fold change vs veh, ZNF330 / RFU, GPN3 / Fold change vs veh, GPN3 / RFU, C9orf123 / Fold change vs veh, C9orf123 / RFU, N4BP2L2 / Fold change vs veh, N4BP2L2 / RFU, ARFIP1 / Fold change vs veh, ARFIP1 / RFU, FAM179B / Fold change vs veh, FAM179B / RFU, BCL10 / Fold change vs veh, BCL10 / RFU, UHRF1BP1L / Fold change vs veh, UHRF1BP1L / RFU, BET1 / Fold change vs veh, BET1 / RFU, CNOT2 / Fold change vs veh, CNOT2 / RFU, ZNF268 / Fold change vs veh, ZNF268 / Fold change vs veh, ZNF507 / RFU, DGCR2 / Fold change vs veh, DGCR2 / RFU, WDSUB1 / Fold change vs veh, WDSUB1 / Fold change vs veh, HSP90B1 /// MIR3652 / RFU, ADSS / Fold change vs veh, ADSS / RFU, GK / Fold change vs veh, GK / RFU, ZNF148 / Fold change vs veh, ZNF148 / RFU, TAF9 / Fold change vs veh, TAF9 / RFU, SLC1A5 / Fold change vs veh, SLC1A5 / RFU, SLMO2 / Fold change vs veh, SLMO2 / RFU, ABCC4 / Fold change vs veh, ABCC4 / RFU, LOC101060439 /// RAP1B / Fold change vs veh, LOC101060439 /// RAP1B / RFU, RFX7 / Fold change vs veh, RFX7 / RFU, GTPBP10 / Fold change vs veh, GTPBP10 / RFU, CNEP1R1 / Fold change vs veh, CNEP1R1 / RFU, BIVM-ERCC5 /// ERCC5 / Fold change vs veh, BIVM-ERCC5 /// ERCC5 / RFU, ILF3 / Fold change vs veh, ILF3 / RFU 11762660_at / Fold change /veh 11762660_at / RFU VCAN (11757783_s_at) / Fold change /veh VCAN (11757783_s_at) / RFU DDX43 (11728927_at) / Fold change /veh DDX43 (11728927_at) / RFU KRT8 (11758188_x_at) / Fold change /veh KRT8 (11758188_x_at) / RFU NKD1 (11759106_at) / Fold change /veh NKD1 (11759106_at) / RFU SRD5A1 (11742802_a_at) / Fold change /veh SRD5A1 (11742802_a_at) / RFU TPSAB1 /// TPSB2 (11721975_s_at) / Fold change /veh TPSAB1 /// TPSB2 (11721975_s_at) / RFU GSTM3 (11746129_a_at) / Fold change /veh GSTM3 (11746129_a_at) / RFU IL23R (11737362_x_at) / Fold change /veh IL23R (11737362_x_at) / RFU TMEM51 (11727254_a_at) / Fold change /veh TMEM51 (11727254_a_at) / RFU PIWIL2 (11732686_x_at) / Fold change /veh PIWIL2 (11732686_x_at) / RFU ORM1 (11744905_x_at) / Fold change /veh ORM1 (11744905_x_at) / RFU CCDC152 (11743942_at) / Fold change /veh CCDC152 (11743942_at) / RFU ECM1 (11717891_a_at) / Fold change /veh ECM1 (11717891_a_at) / RFU IL23R (11748794_a_at) / Fold change /veh IL23R (11748794_a_at) / RFU TNFAIP8L3 (11732012_x_at) / Fold change /veh TNFAIP8L3 (11732012_x_at) / RFU MBOAT4 (11741988_at) / Fold change /veh MBOAT4 (11741988_at) / RFU 11764193_at / Fold change /veh 11764193_at / RFU TMEM53 (11763286_at) / Fold change /veh TMEM53 (11763286_at) / RFU MAGEB2 (11727129_at) / Fold change /veh MAGEB2 (11727129_at) / RFU TMEM200A (11744735_a_at) / Fold change /veh TMEM200A (11744735_a_at) / RFU CCDC152 (11751479_a_at) / Fold change /veh CCDC152 (11751479_a_at) / RFU FAM211A (11726209_a_at) / Fold change /veh FAM211A (11726209_a_at) / RFU RGS16 (11746705_a_at) / Fold change /veh RGS16 (11746705_a_at) / RFU VCAN (11755009_s_at) / Fold change /veh VCAN (11755009_s_at) / RFU RHOB (11743442_s_at) / Fold change /veh RHOB (11743442_s_at) / RFU RGS16 (11720943_a_at) / Fold change /veh RGS16 (11720943_a_at) / RFU RGS16 (11720944_at) / Fold change /veh RGS16 (11720944_at) / RFU, VPS4B / Fold change vs veh, VPS4B / RFU, CREB1 / Fold change vs veh, CREB1 / RFU, DNAJC13 / Fold change vs veh, DNAJC13 / RFU, GNAQ / Fold change vs veh, GNAQ / RFU, CDK5R1 / Fold change vs veh, CDK5R1 / RFU, ZRANB3 / Fold change vs veh, ZRANB3 / RFU, CUL4A / Fold change vs veh, CUL4A / RFU, CCNY / Fold change vs veh, CCNY / RFU, UFL1 / Fold change vs veh, UFL1 / RFU, COG3 / Fold change vs veh, COG3 / RFU, DIAPH2 / Fold change vs veh, DIAPH2 / RFU, SKA2 / Fold change vs veh, SKA2 / RFU, AFF3 / Fold change vs veh, AFF3 / RFU, LMF1 / Fold change vs veh, LMF1 / RFU, IPO11 / Fold change vs veh, IPO11 / RFU, DFFB / Fold change vs veh, DFFB / RFU, FOXP1 / Fold change vs veh, FOXP1 / RFU, CARD8 / Fold change vs veh, CARD8 / RFU, STRN3 / Fold change vs veh, STRN3 / RFU, ADK / Fold change vs veh, ADK / RFU, RASSF2 / Fold change vs veh, RASSF2 / RFU, WIPF1 / Fold change vs veh, WIPF1 / RFU, LARP1B / Fold change vs veh, LARP1B / RFU, RASA1 / Fold change vs veh, RASA1 / RFU, RB1 / Fold change vs veh, RB1 / RFU, PPFIA1 / Fold change vs veh, PPFIA1 / RFU, MAT2A / Fold change vs veh, MAT2A / RFU, CCT5 / Fold change vs veh, CCT5 / RFU, WDR92 / Fold change vs veh, WDR92 / RFU, CUX1 / Fold change vs veh, CUX1 / RFU, TTC7A / Fold change vs veh, TTC7A / RFU, TMEM135 / Fold change vs veh, TMEM135 / RFU, DEPTOR / Fold change vs veh, DEPTOR / RFU, CPM / Fold change vs veh, CPM / RFU, DNAJB6 / Fold change vs veh, DNAJB6 / RFU, CACNA2D3 / Fold change vs veh, CACNA2D3 / RFU, DTX4 / Fold change vs veh, DTX4 / RFU, TFCP2 / Fold change vs veh, TFCP2 / RFU, GMCL1 /// GMCL1P1 / Fold change vs veh, GMCL1 /// GMCL1P1 / RFU, AEBP2 / Fold change vs veh, AEBP2 / RFU, SNHG1 /// SNORD22 /// SNORD25 /// SNORD26 /// SNORD27 /// SNORD28 /// SNORD29 /// SNORD31 / Fold change vs veh, SNHG1 /// SNORD22 /// SNORD25 /// SNORD26 /// SNORD27 /// SNORD28 /// SNORD29 /// SNORD31 / Fold change (Aza/veh), C12orf56 (ProbeSet 11735607_a_at) / Fold change (ACY-1035/veh), C12orf56 (ProbeSet 11735607_a_at) / Fold change (Aza/veh), FGFR1OP (ProbeSet 11751329_s_at) / Fold change (ACY-1035/veh), FGFR1OP (ProbeSet 11751329_s_at) / Fold change (Aza/veh), VPS36 (ProbeSet 11739960_a_at) / Fold change (ACY-1035/veh), VPS36 (ProbeSet 11739960_a_at) / RFU SYPL1 (11715823_x_at) / Fold change /veh SYPL1 (11715823_x_at) / RFU IGFBP7 (11715501_s_at) / Fold change /veh IGFBP7 (11715501_s_at) / RFU REEP3 (11722064_at) / Fold change /veh REEP3 (11722064_at) / RFU IGLL1 (11728026_x_at) / Fold change /veh IGLL1 (11728026_x_at): dose or concentration left out as unconfirmed
# Conditions: MV-4-11 cells, 48 hours
structure (smiles),measurement,value
Nc1ncn([C@@H]2O[C@H](CO)[C@@H](O)[C@H]2O)c(=O)n1 [azacitidine],Fold change /veh KIR2DL2 /// KIR2DL4 /// KIR2DL5A /// KIR2DL5B /// KIR2DS1 /// KIR2DS2 /// KIR2DS3 /// KIR2DS4 /// KIR3DL3 /// KIR3DL3 /// KIR3DS1 (11738374_at),0.92
